Structures can show the parent of a compound that is named as a salt.
Experiments:
[1] = target: DRD2 alanine-scan mutation library (Homo sapiens, UniProt P14416, A177S)
[2] = target: DRD2 alanine-scan mutation library (Homo sapiens, UniProt P14416, C107A)
[3] = target: DRD2 alanine-scan mutation library (Homo sapiens, UniProt P14416, C118A)
[4] = target: DRD2 alanine-scan mutation library (Homo sapiens, UniProt P14416, C182A)
[5] = target: DRD2 alanine-scan mutation library (Homo sapiens, UniProt P14416, D114A)
[6] = target: DRD2 alanine-scan mutation library (Homo sapiens, UniProt P14416, D80A)
[7] = target: DRD2 alanine-scan mutation library (Homo sapiens, UniProt P14416, E248A)
[8] = target: DRD2 alanine-scan mutation library (Homo sapiens, UniProt P14416, E95A)
[9] = target: DRD2 alanine-scan mutation library (Homo sapiens, UniProt P14416, F189A)
[10] = target: DRD2 alanine-scan mutation library (Homo sapiens, UniProt P14416, F198A)
[11] = target: DRD2 alanine-scan mutation library (Homo sapiens, UniProt P14416, H393A)
[12] = target: DRD2 alanine-scan mutation library (Homo sapiens, UniProt P14416, I122A)
[13] = target: DRD2 alanine-scan mutation library (Homo sapiens, UniProt P14416, I128A)
[14] = target: DRD2 alanine-scan mutation library (Homo sapiens, UniProt P14416, I184A)
[15] = target: DRD2 alanine-scan mutation library (Homo sapiens, UniProt P14416, I377A)
[16] = target: DRD2 alanine-scan mutation library (Homo sapiens, UniProt P14416, I394A)
[17] = target: DRD2 alanine-scan mutation library (Homo sapiens, UniProt P14416, I397A)
[18] = target: DRD2 alanine-scan mutation library (Homo sapiens, UniProt P14416, L125A)
[19] = target: DRD2 alanine-scan mutation library (Homo sapiens, UniProt P14416, L81A)
[20] = target: DRD2 alanine-scan mutation library (Homo sapiens, UniProt P14416, N23A)
[21] = target: DRD2 alanine-scan mutation library (Homo sapiens, UniProt P14416, R132A)
[22] = target: DRD2 alanine-scan mutation library (Homo sapiens, UniProt P14416, S121A)
[23] = target: DRD2 alanine-scan mutation library (Homo sapiens, UniProt P14416, S193A)
[24] = target: DRD2 alanine-scan mutation library (Homo sapiens, UniProt P14416, S197A)
[25] = target: DRD2 alanine-scan mutation library (Homo sapiens, UniProt P14416, S419A)
[26] = target: DRD2 alanine-scan mutation library (Homo sapiens, UniProt P14416, S7A)
[27] = target: DRD2 alanine-scan mutation library (Homo sapiens, UniProt P14416, T119A)
[28] = target: DRD2 alanine-scan mutation library (Homo sapiens, UniProt P14416, T165A)
[29] = target: DRD2 alanine-scan mutation library (Homo sapiens, UniProt P14416, T205A)
[30] = target: DRD2 alanine-scan mutation library (Homo sapiens, UniProt P14416, V190A)
[31] = target: DRD2 alanine-scan mutation library (Homo sapiens, UniProt P14416, V196A)
[32] = target: DRD2 alanine-scan mutation library (Homo sapiens, UniProt P14416, V83A)
[33] = target: DRD2 alanine-scan mutation library (Homo sapiens, UniProt P14416, V91A)
[34] = target: DRD2 alanine-scan mutation library (Homo sapiens, UniProt P14416, W386A)
[35] = target: DRD2 alanine-scan mutation library (Homo sapiens, UniProt P14416, Y192A)
[36] = target: DRD2 alanine-scan mutation library (Homo sapiens, UniProt P14416, Y199A)
[37] = target: DRD2 alanine-scan mutation library (Homo sapiens, UniProt P14416, Y416A)
[38] = test system: Staphylococcus aureus ATCC# 6538
[39] = test system: Pseudomonas aeruginosa ATCC# 9027; conditions: 1:300 with TSB Mod Dilution; inoculum count 28
[40] = test system: Bacillus subtilis ATCC# 6633; conditions: 1:300 with TSB Mod Dilution; inoculum count 52
[41] = test system: Candida albicans ATCC# 10231; conditions: 1:300 with TSB Mod Dilution
[42] = test system: Aspergillus brasiliensis ATCC# 16404; conditions: 1:300 with TSB Mod Dilution

DRD2 alanine-scan mutation library (Homo sapiens, UniProt P14416, V83A), sequence (P14416 whole entry V83A): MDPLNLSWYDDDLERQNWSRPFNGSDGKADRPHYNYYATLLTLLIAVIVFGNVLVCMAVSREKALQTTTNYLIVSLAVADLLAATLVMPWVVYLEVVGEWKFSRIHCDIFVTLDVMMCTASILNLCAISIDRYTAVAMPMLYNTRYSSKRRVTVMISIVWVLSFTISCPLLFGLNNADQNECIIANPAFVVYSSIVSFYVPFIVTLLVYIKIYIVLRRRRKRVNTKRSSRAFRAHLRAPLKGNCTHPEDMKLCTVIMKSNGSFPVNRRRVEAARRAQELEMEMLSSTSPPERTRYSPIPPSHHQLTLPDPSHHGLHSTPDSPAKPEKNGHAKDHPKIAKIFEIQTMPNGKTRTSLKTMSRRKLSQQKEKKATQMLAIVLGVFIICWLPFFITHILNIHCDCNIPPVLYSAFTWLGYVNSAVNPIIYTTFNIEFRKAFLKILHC
DRD2 alanine-scan mutation library (Homo sapiens, UniProt P14416, D114A), sequence (P14416 whole entry D114A): as the sequence (P14416 whole entry V83A) above, with A83V, D114A counted along it
DRD2 alanine-scan mutation library (Homo sapiens, UniProt P14416, F198A), sequence (P14416 whole entry F198A): as the sequence (P14416 whole entry V83A) above, with A83V, F198A counted along it
DRD2 alanine-scan mutation library (Homo sapiens, UniProt P14416, E248A), sequence (P14416 whole entry E248A): as the sequence (P14416 whole entry V83A) above, with A83V, E248A counted along it
DRD2 alanine-scan mutation library (Homo sapiens, UniProt P14416, N23A), sequence (P14416 whole entry N23A): as the sequence (P14416 whole entry V83A) above, with N23A, A83V counted along it
DRD2 alanine-scan mutation library (Homo sapiens, UniProt P14416, R132A), sequence (P14416 whole entry R132A): as the sequence (P14416 whole entry V83A) above, with A83V, R132A counted along it
DRD2 alanine-scan mutation library (Homo sapiens, UniProt P14416, V190A), sequence (P14416 whole entry V190A): as the sequence (P14416 whole entry V83A) above, with A83V, V190A counted along it
DRD2 alanine-scan mutation library (Homo sapiens, UniProt P14416, S419A), sequence (P14416 whole entry S419A): as the sequence (P14416 whole entry V83A) above, with A83V, S419A counted along it
DRD2 alanine-scan mutation library (Homo sapiens, UniProt P14416, A177S), sequence (P14416 whole entry A177S): as the sequence (P14416 whole entry V83A) above, with A83V, A177S counted along it
DRD2 alanine-scan mutation library (Homo sapiens, UniProt P14416, I394A), sequence (P14416 whole entry I394A): as the sequence (P14416 whole entry V83A) above, with A83V, I394A counted along it
DRD2 alanine-scan mutation library (Homo sapiens, UniProt P14416, Y199A), sequence (P14416 whole entry Y199A): as the sequence (P14416 whole entry V83A) above, with A83V, Y199A counted along it

NCCc1ccc(O)c(O)c1 [Dopamine, dopamine] was tested, and the “Calcium Flux as a % of flux with WT DRD2 (100), Dopamine 1 nM” value (“Calcium Flux as a % of flux with WT DRD2” for short) [1] was 85%, the “Calcium Flux % WT” value [2] was 20 % WT and the “Calcium Flux % WT” value [3] was 14 % WT. For the same compound, the “Calcium Flux % WT” value [4] was 0 % WT, the “Calcium Flux % WT” value [5] was 4 % WT and the “Calcium Flux % WT” value [6] was 3 % WT. For the same compound, the “Calcium Flux % WT” value [7] was 19 % WT, the “Calcium Flux as a % of flux with WT DRD2” value [8] was 123% and the “Calcium Flux % WT” value [9] was 22 % WT. For the same compound, the “Calcium Flux % WT” value [10] was 10 % WT, the “Calcium Flux % WT” value [11] was 4 % WT and the “Calcium Flux % WT” value [12] was 23 % WT. For the same compound, the “Calcium Flux % WT” value [13] was 27 % WT, the “Calcium Flux % WT” value [14] was 0 % WT and the “Calcium Flux % WT” value [15] was 11 % WT. For the same compound, the “Calcium Flux % WT” value [16] was 16 % WT, the “Calcium Flux as a % of flux with WT DRD2” value [17] was 105% and the “Calcium Flux % WT” value [18] was 25 % WT. The “Calcium Flux as a % of flux with WT DRD2” value [19] was 83%, the “Calcium Flux % WT” value [20] was 25 % WT and the “Calcium Flux % WT” value [21] was 3 % WT. For the same compound, the “Calcium Flux % WT” value [22] was 16 % WT, the “Calcium Flux % WT” value [23] was 1 % WT and the “Calcium Flux % WT” value [24] was 0 % WT. The “Calcium Flux % WT” value [25] was 20 % WT, the “Calcium Flux % WT” value [26] was 15 % WT and the “Calcium Flux % WT” value [27] was 1 % WT. For the same compound, the “Calcium Flux as a % of flux with WT DRD2” value [28] was 92%, the “Calcium Flux % WT” value [29] was 24 % WT and the “Calcium Flux % WT” value [30] was 20 % WT. The “Calcium Flux as a % of flux with WT DRD2” value [31] was 119%, the “Calcium Flux % WT” value [32] was 10 % WT and the “Calcium Flux as a % of flux with WT DRD2” value [33] was 119%. The “Calcium Flux % WT” value [34] was 15 % WT, the “Calcium Flux as a % of flux with WT DRD2” value [35] was 64% and the “Calcium Flux % WT” value [36] was 20 % WT. The “Calcium Flux % WT” value [37] was 12 % WT.

With Cc1ccccc1CN1C(=O)C2=C(CCN(Cc3ccccc3)C2)N2CCN=C12 [ONC201 dihydrochloride] the “Indicator Organisms Count, Sa” value [38] was 0, the “Indicator Organisms Count, Pa” value [39] was 24 and the “Indicator Organisms Count, Bs” value [40] was 48. For the same compound, the “Indicator Organisms Count, Ca (TSA)” value ([41]; inoculum count 48) was 51, the “Indicator Organisms Count, CA (SDA)” value ([41]; inoculum count 52) was 46 and the “Indicator Organisms Count, Ab (SDA)” value ([42]; inoculum count 20) was 19. For the same compound, the “Indicator Organisms Count, Ab (TSA)” value ([42]; inoculum count 21) was 18.
